Data taken from paper PMC10594875, “One-Pot De Novo Synthesis of [4Fe-4S] Proteins Using a Recombinant SUF System under Aerobic Conditions” (ACS Synthetic Biology, 2023).

Molecular target: T1, Aconitase (AcnA) (Escherichia coli, UniProt P25516)
T1 construct: cell-free (PUREfrex) synthesis, N-His6 tag removed with HRV protease, [4Fe-4S] cluster matured by SUF system
Assay: LC-MS of citrate consumption, isocitrate dehydrogenase-coupled
Assay type: biochemical
Settings: coupled with NADP-dependent isocitrate dehydrogenase

T1 sequence (P25516 2-891): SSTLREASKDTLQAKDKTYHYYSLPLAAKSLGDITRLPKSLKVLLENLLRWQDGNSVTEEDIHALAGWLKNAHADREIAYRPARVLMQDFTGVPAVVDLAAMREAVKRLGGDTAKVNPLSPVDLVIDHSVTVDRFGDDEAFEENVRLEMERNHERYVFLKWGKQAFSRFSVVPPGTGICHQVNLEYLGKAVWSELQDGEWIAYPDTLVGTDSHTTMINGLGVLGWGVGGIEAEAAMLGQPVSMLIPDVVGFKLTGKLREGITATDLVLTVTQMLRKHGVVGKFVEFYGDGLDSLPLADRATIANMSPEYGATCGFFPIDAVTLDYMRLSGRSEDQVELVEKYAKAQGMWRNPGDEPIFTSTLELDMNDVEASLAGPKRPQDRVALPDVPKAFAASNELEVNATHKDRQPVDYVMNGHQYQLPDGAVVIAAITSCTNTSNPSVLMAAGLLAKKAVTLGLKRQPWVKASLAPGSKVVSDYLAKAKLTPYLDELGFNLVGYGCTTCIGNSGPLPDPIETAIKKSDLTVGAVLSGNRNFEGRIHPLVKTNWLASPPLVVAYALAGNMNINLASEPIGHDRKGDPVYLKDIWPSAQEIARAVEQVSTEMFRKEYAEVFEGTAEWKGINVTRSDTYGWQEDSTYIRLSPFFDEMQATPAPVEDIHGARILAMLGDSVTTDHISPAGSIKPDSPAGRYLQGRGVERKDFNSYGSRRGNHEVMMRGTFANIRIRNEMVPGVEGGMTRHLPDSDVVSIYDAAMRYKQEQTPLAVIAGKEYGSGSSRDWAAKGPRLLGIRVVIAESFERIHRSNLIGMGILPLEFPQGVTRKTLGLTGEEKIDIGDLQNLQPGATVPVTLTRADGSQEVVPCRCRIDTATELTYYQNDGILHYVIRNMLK

Compound: O=C(O)CC(O)(CC(=O)O)C(=O)O [citrate]
- LC-MS of citrate consumption, isocitrate dehydrogenase-coupled: concurring citrate consumption and alpha-ketoglutarate production in the assays with AcnA purified
